# Laboratory results reported in patent publication US10829796B2, “Bacteria identification and antimicrobial susceptibility test” (priority 2015, dated 2020).
# How the values were obtained:
# Type in all cases: cell-based
# Streptococcus uberis = assay: Antibiotic susceptibility testing (colour of media), spiked milk; conditions: for Colour of media in each well: T~16 h, 37° C., bacteria samples 6d, plate configuration #3
# Procedure: (§1) Tables 36 to 38 which follow show further examples of antibiotic susceptibility testing performed in accordance with the present invention. Table 36, antibiotic susceptibility testing of Staphylococcus aureus in Mueller Hinton and Tryptic Soy Broth at pre-incubation and at between 15-24 h. Tables 37 and 38, antimicrobial susceptibility testing of Streptococcus uberis and E. coli with the addition of gram negative specific antibiotic aztreonam. Tables 38 to 49 show further examples of antibiotic susceptibility testing and the outcomes are aligned with the described inventions.
# Escherichia coli = assay: as above; conditions: for Colour of media in each well: 37° C., plate configuration #3
# Procedure: as §1
# Staphylococcus aureus = assay: as above; conditions: for Colour of media: Tryptic Soy (70 ul composition 2c), bacteria sample 5c; for Colour of media in each well: T~16 h, 37° C., plate configuration #3
# Procedure: as §1
# [1] = test system: bacteria samples 4c, 4e, 5c, 5e, 6d; assay: Antibiotic susceptibility testing (colour of media), plate configuration #3, reference colours at 0 hours for bacteria samples 4c, 4e, 5c, 5e, 6d; conditions: T~0 h
# [2] = bacteria sample 6d 4 μl + Composition 27 1 μl + drug solution (100 μg Aztreonam per ml water) 0.5 μl
# [3] = bacteria sample 6d 8 μl + Composition 27 2 μl + drug solution (100 μg Aztreonam per ml water) 1 μl
# [4] = bacteria sample 6d 20 μl + Composition 27 5 μl + drug solution (100 μg Aztreonam per ml water) 2.5 μl
# [5] = bacteria sample 6d 40 μl + Composition 27 10 μl + drug solution (100 μg Aztreonam per ml water) 5 μl
# [6] = bacteria sample 6d 80 μl + Composition 27 20 μl + drug solution (100 μg Aztreonam per ml water) 10 μl
# [7] = bacteria sample 6d 160 μl + Composition 27 40 μl + drug solution (100 μg Aztreonam per ml water) 20 μl
# [8] = bacteria sample 4d 4 μl + Composition 27 1 μl + drug solution (100 μg Aztreonam per ml water) 0.5 μl
# [9] = bacteria sample 4d 8 μl + Composition 27 2 μl + drug solution (100 μg Aztreonam per ml water) 1 μl
# [10] = bacteria sample 4d 20 μl + Composition 27 5 μl + drug solution (100 μg Aztreonam per ml water) 2.5 μl
# [11] = bacteria sample 4d 40 μl + Composition 27 10 μl + drug solution (100 μg Aztreonam per ml water) 5 μl
# [12] = bacteria sample 4d 80 μl + Composition 27 20 μl + drug solution (100 μg Aztreonam per ml water) 10 μl
# [13] = bacteria sample 4d 160 μl + Composition 27 40 μl + drug solution (100 μg Aztreonam per ml water) 20 μl
smiles,measurement,setting,value
C[C@H]1[C@H](NC(=O)/C(=N\OC(C)(C)C(=O)O)c2csc(N)n2)C(=O)N1S(=O)(=O)O [aztreonam],Colour of media in each well,Streptococcus uberis; Aztreonam 0.001 μg/ml,yellow
same,Colour of media in each well,Streptococcus uberis; Aztreonam 0.01 μg/ml,yellow
same,Colour of media in each well,Streptococcus uberis; Aztreonam 0.1 μg/ml,yellow
same,Colour of media in each well,Streptococcus uberis; Aztreonam 1 μg/ml,yellow
same,Colour of media in each well,Streptococcus uberis; Aztreonam 10 μg/ml,yellow
same,Colour of media after 24 hours incubation at 37° C.,Streptococcus uberis; [2],Black
same,Colour of media prior incubation,Streptococcus uberis; [2],Red
same,Colour of media after 24 hours incubation at 37° C.,Streptococcus uberis; [3],Black
same,Colour of media prior incubation,Streptococcus uberis; [3],Red
same,Colour of media after 24 hours incubation at 37° C.,Streptococcus uberis; [4],Black
same,Colour of media prior incubation,Streptococcus uberis; [4],Red
same,Colour of media after 24 hours incubation at 37° C.,Streptococcus uberis; [5],Black
same,Colour of media prior incubation,Streptococcus uberis; [5],Red
same,Colour of media after 24 hours incubation at 37° C.,Streptococcus uberis; [6],Black
same,Colour of media prior incubation,Streptococcus uberis; [6],Red
same,Colour of media after 24 hours incubation at 37° C.,Streptococcus uberis; [7],Black
same,Colour of media prior incubation,Streptococcus uberis; [7],Red
same,Colour of media in each well,"Escherichia coli; T~16 h, bacteria samples 4c, Aztreonam 0.001 μg/ml",yellow
same,Colour of media in each well,"Escherichia coli; T~16 h, bacteria samples 4c, Aztreonam 0.01 μg/ml",yellow
same,Colour of media in each well,"Escherichia coli; T~16 h, bacteria samples 4c, Aztreonam 0.1 μg/ml",yellow
same,Colour of media in each well,"Escherichia coli; T~16 h, bacteria samples 4c, Aztreonam 1 μg/ml",yellow
same,Colour of media in each well,"Escherichia coli; T~16 h, bacteria samples 4c, Aztreonam 10 μg/ml",yellow
same,Colour of media after 24 hours incubation at 37° C.,Escherichia coli; [8],Red
same,Colour of media prior incubation,Escherichia coli; [8],Red
same,Colour of media after 24 hours incubation at 37° C.,Escherichia coli; [9],Red
same,Colour of media prior incubation,Escherichia coli; [9],Red
same,Colour of media after 24 hours incubation at 37° C.,Escherichia coli; [10],Red
same,Colour of media prior incubation,Escherichia coli; [10],Red
same,Colour of media after 24 hours incubation at 37° C.,Escherichia coli; [11],Red
same,Colour of media prior incubation,Escherichia coli; [11],Red
same,Colour of media after 24 hours incubation at 37° C.,Escherichia coli; [12],Red
same,Colour of media prior incubation,Escherichia coli; [12],Red
same,Colour of media after 24 hours incubation at 37° C.,Escherichia coli; [13],Red
same,Colour of media prior incubation,Escherichia coli; [13],Red
same,Colour of media in each well,"Escherichia coli; t~16 h, bacteria samples 4e, Aztreonam 0.001 μg/ml",yellow
same,Colour of media in each well,"Escherichia coli; t~16 h, bacteria samples 4e, Aztreonam 0.01 μg/ml",yellow
same,Colour of media in each well,"Escherichia coli; t~16 h, bacteria samples 4e, Aztreonam 0.1 μg/ml",yellow
same,Colour of media in each well,"Escherichia coli; t~16 h, bacteria samples 4e, Aztreonam 1 μg/ml",red
same,Colour of media in each well,"Escherichia coli; t~16 h, bacteria samples 4e, Aztreonam 10 μg/ml",red
same,Colour of media,"Staphylococcus aureus; T = 0 hours (pre incubation), drug 0.01 μg/ml",red
same,Colour of media,"Staphylococcus aureus; T = 0 hours (pre incubation), drug 0.05 μg/ml",red
same,Colour of media,"Staphylococcus aureus; T = 0 hours (pre incubation), drug 0.1 μg/ml",red
same,Colour of media,"Staphylococcus aureus; T = 0 hours (pre incubation), drug 0.5 μg/ml",red
same,Colour of media,"Staphylococcus aureus; T = 0 hours (pre incubation), drug 1 μg/ml",red
same,Colour of media,"Staphylococcus aureus; T = 0 hours (pre incubation), drug 5 μg/ml",red
same,Colour of media,"Staphylococcus aureus; T = 0 hours (pre incubation), drug 10 μg/ml",red
same,Colour of media,"Staphylococcus aureus; T = 0 hours (pre incubation), drug 50 μg/ml",red
same,Colour of media,"Staphylococcus aureus; T = 0 hours (pre incubation), drug 100 μg/ml",red
same,Colour of media,"Staphylococcus aureus; T = 0 hours (pre incubation), drug 500 μg/ml",red
same,Colour of media,"Staphylococcus aureus; T = 15-24 h at 35° C., drug 0.01 μg/ml",yellow
same,Colour of media,"Staphylococcus aureus; T = 15-24 h at 35° C., drug 0.05 μg/ml",yellow
same,Colour of media,"Staphylococcus aureus; T = 15-24 h at 35° C., drug 0.1 μg/ml",yellow
same,Colour of media,"Staphylococcus aureus; T = 15-24 h at 35° C., drug 0.5 μg/ml",yellow
same,Colour of media,"Staphylococcus aureus; T = 15-24 h at 35° C., drug 1 μg/ml",yellow
same,Colour of media,"Staphylococcus aureus; T = 15-24 h at 35° C., drug 5 μg/ml",yellow
same,Colour of media,"Staphylococcus aureus; T = 15-24 h at 35° C., drug 10 μg/ml",yellow
same,Colour of media,"Staphylococcus aureus; T = 15-24 h at 35° C., drug 50 μg/ml",yellow
same,Colour of media,"Staphylococcus aureus; T = 15-24 h at 35° C., drug 100 μg/ml",yellow
same,Colour of media,"Staphylococcus aureus; T = 15-24 h at 35° C., drug 500 μg/ml",yellow
same,Colour of media in each well,"Staphylococcus aureus; bacteria samples 5c, Aztreonam 0.001 μg/ml",red
same,Colour of media in each well,"Staphylococcus aureus; bacteria samples 5c, Aztreonam 0.01 μg/ml",yellow
same,Colour of media in each well,"Staphylococcus aureus; bacteria samples 5c, Aztreonam 0.1 μg/ml",yellow
same,Colour of media in each well,"Staphylococcus aureus; bacteria samples 5c, Aztreonam 1 μg/ml",yellow
same,Colour of media in each well,"Staphylococcus aureus; bacteria samples 5c, Aztreonam 10 μg/ml",yellow
same,Colour of media in each well,"Staphylococcus aureus; bacteria samples 5e, Aztreonam 0.001 μg/ml",yellow
same,Colour of media in each well,"Staphylococcus aureus; bacteria samples 5e, Aztreonam 0.01 μg/ml",yellow
same,Colour of media in each well,"Staphylococcus aureus; bacteria samples 5e, Aztreonam 0.1 μg/ml",yellow
same,Colour of media in each well,"Staphylococcus aureus; bacteria samples 5e, Aztreonam 1 μg/ml",yellow
same,Colour of media in each well,"Staphylococcus aureus; bacteria samples 5e, Aztreonam 10 μg/ml",yellow
same,Colour of media in each well,[1]; Aztreonam 0.001 μg/ml,red
same,Colour of media in each well,[1]; Aztreonam 0.01 μg/ml,red
same,Colour of media in each well,[1]; Aztreonam 0.1 μg/ml,red
same,Colour of media in each well,[1]; Aztreonam 1 μg/ml,red
same,Colour of media in each well,[1]; Aztreonam 10 μg/ml,red
